{"source": "patent US6495699B2", "about": "“Metalloproteinase inhibitors, pharmaceutical compositions containing them, and their use” (Agouron Pharmaceuticals Inc., priority 1996, dated 2002)", "key": {"[1]": {"target": "T1, catalytic domain of human stromelysin (Hsln) (Homo sapiens, UniProt P08254)", "T1 construct": "The catalytic domain of human stromelysin (Hsln) was obtained by expression and purification of a C-terminally truncated prostromelysin-1; made in house; host or cells: E. coli BL21", "T1 sequence (P08254 100-272 limits assumed)": "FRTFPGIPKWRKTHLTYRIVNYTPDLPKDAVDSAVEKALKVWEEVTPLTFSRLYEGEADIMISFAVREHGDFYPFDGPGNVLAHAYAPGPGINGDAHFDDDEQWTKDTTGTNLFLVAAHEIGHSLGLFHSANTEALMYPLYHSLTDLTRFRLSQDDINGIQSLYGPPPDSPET", "assay": "Fluorometric MCA-peptide hydrolysis assay, stromelysin (Hsln)", "assay_type": "biochemical", "conditions": "apparent Ki; 10 μM MCA peptide substrate, 37° C., pH 7.5; read-out: Hsln (Ki,app)", "procedure,_shortened": "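APMA-activated E. coli–expressed catalytic domain, with 10 μM MCA-Pro-Leu-Gly-Leu-DPA-Ala-Arg-NH2 at 37 °C. Buffer was pH 7.5 Tricine with NaCl, CaCl2, zinc acetate and 2% final DMSO; fluorescence read at ex 328/em 393 nm over 60 min. Ki,app from steady-state rates fitted to competitive or Morrison tight-binding equations.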"}, "Human matrilysin (Matr)": {"target": "T2, Human matrilysin (Matr) (Homo sapiens, UniProt P09237)", "T2 construct": "the catalytic domain was liberated by treatment with 2 mM APMA at 37° C. for 2 hours; ubiquitin (cleaved yes); made in house; host or cells: E. coli", "T2 sequence (P09237 95-267)": "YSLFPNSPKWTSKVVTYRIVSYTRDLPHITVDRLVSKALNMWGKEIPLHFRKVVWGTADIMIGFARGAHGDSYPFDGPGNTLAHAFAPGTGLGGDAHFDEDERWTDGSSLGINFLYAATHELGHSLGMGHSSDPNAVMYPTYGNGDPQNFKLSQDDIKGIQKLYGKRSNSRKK", "assay": "Fluorometric MCA-peptide hydrolysis assay, matrilysin (Matr)", "assay_type": "biochemical", "conditions": "apparent Ki; 10 μM MCA peptide substrate, 37° C., pH 7.5; read-out: Matr (Ki,app)", "procedure,_shortened": "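Catalytic domain of E. coli-expressed human matrilysin assayed at 37° C, pH 7.5 Tricine buffer, 2% DMSO, with 10 μM MCA-Pro-Leu-Gly-Leu-DPA-Ala-Arg-NH2; fluorescence ex 328/em 393 nm over 60 min. Ki,app from steady-state rates fitted to competitive inhibition or Morrison tight-binding equation.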"}, "[2]": {"target": "T3, fibroblast collagenase-1 catalytic domain (HFC) (Homo sapiens, UniProt P03956)", "T3 construct": "The catalytic domain of human collagenase-1 was expressed as a fusion protein with ubiquitin in E. coli; ubiquitin (cleaved yes); made in house; host or cells: E. coli", "T3 sequence (P03956 100-269 limits assumed)": "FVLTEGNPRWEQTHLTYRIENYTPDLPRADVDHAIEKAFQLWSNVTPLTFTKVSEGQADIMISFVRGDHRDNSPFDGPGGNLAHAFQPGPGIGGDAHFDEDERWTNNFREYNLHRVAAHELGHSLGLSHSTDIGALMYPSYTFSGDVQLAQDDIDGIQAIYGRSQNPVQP", "assay": "Fluorometric MCA-peptide hydrolysis assay, fibroblast collagenase-1 (HFC)", "assay_type": "biochemical", "conditions": "apparent Ki; 10 μM MCA peptide substrate, 37° C., pH 7.5; read-out: HFC (Ki,app)", "procedure,_shortened": "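Human collagenase-1 catalytic domain, expressed in E. coli as ubiquitin fusion, was assayed with 10 μM MCA-Pro-Leu-Gly-Leu-DPA-Ala-Arg-NH2 at 37 °C in Tricine pH 7.5, 2% DMSO, over 60 min (ex 328/em 393 nm). Ki,app came from steady-state rates fitted to competitive or Morrison tight-binding equations.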"}, "[3]": {"target": "T4, human collagenase-3 (Coll3) (Homo sapiens, UniProt P45452)", "T4 construct": "the catalytic domain was liberated by treatment with 2 mM APMA at room temperature overnight; ubiquitin (N, cleaved yes); made in house; host or cells: E. coli", "assay": "Fluorometric MCA-peptide hydrolysis assay, collagenase-3 (Coll3)", "assay_type": "biochemical", "conditions": "apparent Ki; 10 μM MCA peptide substrate, 37° C., pH 7.5; read-out: Coll3 (Ki,app)"}}, "data": [{"smiles": "CNC(=O)[C@@H](NC(=O)[C@@H](CC(=O)O)n1ccc(-c2ccc(-c3ccc(C#N)cc3)cc2)c1)C(C)(C)C", "note": "[Example 5(c), 3(R)-[3-(4′-Cyanobiphenyl-4-yl)-1H-pyrrol-1-yl]-N-[2,2-dimethyl-1(S)-(methylcarbamoyl)propyl]succinamic Acid]", "values": [{"measurement": "Ki", "setting": "[1]", "result": 1.5, "unit": "nM"}, {"measurement": "Ki", "setting": "Human matrilysin (Matr)", "result": 305, "unit": "nM"}, {"measurement": "Ki", "setting": "[2]", "result": 1500, "unit": "nM"}, {"measurement": "Ki", "setting": "[3]", "result": 0.049, "unit": "nM"}, {"measurement": "melting point", "result": "142 to 144", "unit": "°C"}]}]}
